Source: ChEMBL document CHEMBL1667812, “Compounds from Kadsura angustifolia with anti-HIV activity” (Bioorg Med Chem Lett, 2011)
Values after ≈ are worked out from the molar mass of the structure shown.

How the values were obtained:
[1] = system: Human immunodeficiency virus 1; experiment: Antiviral activity against HIV1-3B infected in human […] cells assessed as inhibition of virus-induced cytopathic effect; type: functional, organism-based; conditions: Human immunodeficiency virus 1, 3B
[2] = Cytotoxicity against human […] cells; type: cell-based
[3] = Therapeutic index, ratio of CC50 for human […] cells to EC50 for HIV1-3B; type: cell-based; conditions: read-out: Ratio CC50/EC50

SMILES	EC50 [1]	CC50 [2]	selectivity ratio [3]
C=C(CC/C=C(/C)C(=O)O)C1=CC[C@@]2(C)[C@@H]3[C@H]4C[C@H](C(=C)C)[C@@]5(CCC(=O)O4)C[C@@]35CC[C@]12C [ANGUSTIFIC ACID A]	6.11 µg/mL (≈ 13.1 µM)	> 200 µg/mL	> 32.8
CC1(C)OC(=O)C=C[C@]23C[C@]24C[C@H](O)[C@]2(C)[C@@H]([C@@](C)(O)[C@H]5CC=C(CO)C(=O)O5)CC[C@@]2(C)[C@@H]4C[C@H](O)[C@@H]13 [ANGUSTIFODILACTONE A]	13.3 µg/mL (≈ 25.1 µM)	178 µg/mL (≈ 336 µM)	13.4
COc1cc2c(c(OC)c1OC)-c1c(cc(OC)c(OC)c1OC)C[C@](C)(O)[C@@H](C)C2 [SCHIZANDRIN]	15.8 µg/mL (≈ 36.5 µM)	> 200 µg/mL	> 12.7
C/C=C(/C)C(=O)O[C@H]1c2cc(OC)c(OC)c(OC)c2-c2c(cc3c(c2OC)OCO3)C[C@H](C)[C@]1(C)O [SCHISANTHERIN B]	22.1 µg/mL (≈ 42.9 µM)	> 200 µg/mL	> 9.05
COc1c2c(cc3c1-c1c(cc4c(c1OC)OCO4)[C@H](OC(=O)c1ccccc1)[C@@](C)(O)[C@@H](C)C3)OCO2 [SCHISANTHERIN D]	20.5 µg/mL (≈ 39.4 µM)	> 200 µg/mL	> 9.76
C=C(C)[C@@H]1CC[C@@H]2[C@]3(CC[C@]4(C)C(=O)CC[C@@]24C)C[C@]13CCC(=O)O [MICRANOIC ACID B]	15.7 µg/mL (≈ 45.6 µM)	176 µg/mL (≈ 511 µM)	11.2
C=C(C)[C@@H]1CC[C@@H]2[C@]3(CC[C@]4(C)[C@@H]([C@H](C)CC/C=C(/C)C(=O)O)CC[C@@]24C)C[C@]13CCC(=O)O [NIGRANOIC ACID]	10.5 µg/mL (≈ 22.3 µM)	89 µg/mL (≈ 189 µM)	8.48
Cc1cn([C@H]2C[C@H](N=[N+]=[N-])[C@@H](CO)O2)c(=O)[nH]c1=O [ZIDOVUDINE]	0.0033 µg/mL (≈ 0.0123 µM)	> 200 µg/mL	> 60600
CC1=CC[C@H]([C@](C)(O)[C@H]2CC[C@@]3(C)[C@@H]4C[C@H](O)[C@H]5C(C)(C)OC(=O)C=C[C@@]56C[C@@]46C[C@H](O)[C@]23C)OC1=O [ANGUSTIFODILACTONE B]	13.6 µg/mL (≈ 26.4 µM)	182 µg/mL (≈ 354 µM)	13.4
C=C(C)[C@@H]1C[C@H](O)[C@@H]2[C@]3(CC[C@]4(C)C([C@@](C)(O)CC/C=C(/C)C(=O)O)=C[C@H](O)[C@@]24C)C[C@]13CCC(=O)O [ANGUSTIFIC ACID B]	11.2 µg/mL (≈ 21.7 µM)	156 µg/mL (≈ 302 µM)	13.9
C/C=C(/C)C(=O)O[C@H]1c2cc3c(c(OC)c2-c2c(cc4c(c2OC)OCO4)C[C@H](C)[C@]1(C)O)OCO3 [INTERIOTHERIN B]	19 µg/mL (≈ 38.1 µM)	> 200 µg/mL	> 10.5
